The test has as its target PLC-δ1 PH domain (Homo sapiens, UniProt P51178). The class given is binding. To be noted: pH 7.5.

These results are taken from article PMC5728361 (Structure (London, England : 1993), 2017).

PLC-δ1 PH domain, sequence (P51178 21-130): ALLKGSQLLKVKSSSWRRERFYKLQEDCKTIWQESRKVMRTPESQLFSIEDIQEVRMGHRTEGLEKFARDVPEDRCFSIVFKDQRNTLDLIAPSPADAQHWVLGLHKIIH

Turning to “L-α-phosphatidylinositol-4,5-bisphosphate [PI(4,5)P2]”, the “PIP-binding specificity of PLC-δ1 PH domain” value is “binding specificity”.
